Test results from patent US12497365B2, “4-pyridinyl formamide compound or derivative thereof, preparation method therefor, herbicidal composition and use thereof” (Qingdao Kingagroot Chemical Compound Co., Ltd., priority 2019, dated 2025).

Tests used:
Test in all cases: Weeding effect in post-emergence stage
Format in all cases: in vivo
Details in all cases: active ingredient 2000 g/ha, 3 weeks after application, fresh weight control rate
Abutilon theophrasti = test system: Abutilon theophrasti
Outline: (§1)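 Control of growth was scored on fresh weight 3 weeks after a post-emergence spray-tower application. Rates were 2000, 1000, 500, 250 or 125 g/ha, formulated in acetone/Tween 80 plus methyl oleate concentrate (1.5 L/ha), and applied to potted plants at the 2-3 leaf stage.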

[1] = test system: Amaranthus retroflexus L.
Outline: as §1

Chenopodium album = test system: Chenopodium album
Outline: as §1

Descurainia sophia = test system: Descurainia sophia
Outline: as §1

Structure (SMILES) | Weeding effect, activity level (growth control rate), Abutilon theophrasti (Abutilon theophrasti) | Weeding effect, activity level (growth control rate), Amaranthus retroflexus L. [1] | Weeding effect, activity level (growth control rate), Chenopodium album (Chenopodium album) | Weeding effect, activity level (growth control rate), Descurainia sophia (Descurainia sophia)
COc1c(C(=O)Nc2nnnn2C)ccnc1-c1ccc(F)cc1 [Compound 1-200] | 5 (Level 5: growth control rate is above 85%) | 5 (Level 5: growth control rate is above 85%) | 5 (Level 5: growth control rate is above 85%) | 5 (Level 5: growth control rate is above 85%)
CCOc1c(C(=O)Nc2nnnn2C)ccnc1-c1ccc(F)cc1 [Compound 1-201] | 5 (Level 5: growth control rate is above 85%) | 5 (Level 5: growth control rate is above 85%) | 5 (Level 5: growth control rate is above 85%) | 5 (Level 5: growth control rate is above 85%)
Cn1nnnc1NC(=O)c1ccnc(-c2ccc(F)cc2)c1OCC(F)(F)F [Compound 1-202] | 5 (Level 5: growth control rate is above 85%) | 5 (Level 5: growth control rate is above 85%) | 5 (Level 5: growth control rate is above 85%) | 5 (Level 5: growth control rate is above 85%)
CSc1c(C(=O)Nc2nnnn2C)ccnc1-c1ccc(F)cc1 [Compound 1-203] | 5 (Level 5: growth control rate is above 85%) | 5 (Level 5: growth control rate is above 85%) | 5 (Level 5: growth control rate is above 85%) | 5 (Level 5: growth control rate is above 85%)
CCSc1c(C(=O)Nc2nnnn2C)ccnc1-c1ccc(F)cc1 [Compound 1-204] | 5 (Level 5: growth control rate is above 85%) | 5 (Level 5: growth control rate is above 85%) | 5 (Level 5: growth control rate is above 85%) | 5 (Level 5: growth control rate is above 85%)
Cn1nnnc1NC(=O)c1ccnc(-c2ccc(F)cc2)c1[S+](C)[O-] (stereo not shown) [Compound 1-205] | 5 (Level 5: growth control rate is above 85%) | 5 (Level 5: growth control rate is above 85%) | 5 (Level 5: growth control rate is above 85%) | 5 (Level 5: growth control rate is above 85%)
CC[S+]([O-])c1c(C(=O)Nc2nnnn2C)ccnc1-c1ccc(F)cc1 (stereo not shown) [Compound 1-206] | 5 (Level 5: growth control rate is above 85%) | 5 (Level 5: growth control rate is above 85%) | 5 (Level 5: growth control rate is above 85%) | 5 (Level 5: growth control rate is above 85%)
Cn1nnnc1NC(=O)c1ccnc(-c2ccc(F)cc2)c1S(C)(=O)=O [Compound 1-207] | 5 (Level 5: growth control rate is above 85%) | 5 (Level 5: growth control rate is above 85%) | 5 (Level 5: growth control rate is above 85%) | 5 (Level 5: growth control rate is above 85%)
CN(C)c1c(C(=O)Nc2nnnn2C)ccnc1-c1ccc(F)cc1 [Compound 1-208] | 5 (Level 5: growth control rate is above 85%) | 5 (Level 5: growth control rate is above 85%) | 5 (Level 5: growth control rate is above 85%) | 5 (Level 5: growth control rate is above 85%)
CC(C)=NOc1c(C(=O)Nc2nnnn2C)ccnc1-c1ccc(F)cc1 [Compound 1-209] | 5 (Level 5: growth control rate is above 85%) | 5 (Level 5: growth control rate is above 85%) | 5 (Level 5: growth control rate is above 85%) | 5 (Level 5: growth control rate is above 85%)
CCc1c(C(=O)Nc2nnnn2C)ccnc1-c1ccc(F)cc1 [Compound 1-210] | 5 (Level 5: growth control rate is above 85%) | 5 (Level 5: growth control rate is above 85%) | 5 (Level 5: growth control rate is above 85%) | 5 (Level 5: growth control rate is above 85%)
Cn1nnnc1NC(=O)c1ccnc(-c2ccc(F)cc2)c1SCCl [Compound 1-211] | 5 (Level 5: growth control rate is above 85%) | 5 (Level 5: growth control rate is above 85%) | 5 (Level 5: growth control rate is above 85%) | 5 (Level 5: growth control rate is above 85%)
Cn1nnnc1NC(=O)c1ccnc(-c2ccc(F)cc2)c1[N+](=O)[O-] [Compound 1-212] | 5 (Level 5: growth control rate is above 85%) | 5 (Level 5: growth control rate is above 85%) | 5 (Level 5: growth control rate is above 85%) | 5 (Level 5: growth control rate is above 85%)
Cn1nnnc1NC(=O)c1ccnc(-c2ccc(F)cc2)c1C#N [Compound 1-213] | 5 (Level 5: growth control rate is above 85%) | 5 (Level 5: growth control rate is above 85%) | 5 (Level 5: growth control rate is above 85%) | 5 (Level 5: growth control rate is above 85%)
COCc1c(C(=O)Nc2nnnn2C)ccnc1-c1ccc(F)cc1 [Compound 1-214] | 5 (Level 5: growth control rate is above 85%) | 5 (Level 5: growth control rate is above 85%) | 5 (Level 5: growth control rate is above 85%) | 5 (Level 5: growth control rate is above 85%)
COC(C)c1c(C(=O)Nc2nnnn2C)ccnc1-c1ccc(F)cc1 (stereo not shown) [Compound 1-215] | 5 (Level 5: growth control rate is above 85%) | 5 (Level 5: growth control rate is above 85%) | 5 (Level 5: growth control rate is above 85%) | 5 (Level 5: growth control rate is above 85%)
CCC(OC)c1c(C(=O)Nc2nnnn2C)ccnc1-c1ccc(F)cc1 (stereo not shown) [Compound 1-216] | 5 (Level 5: growth control rate is above 85%) | 5 (Level 5: growth control rate is above 85%) | 5 (Level 5: growth control rate is above 85%) | 5 (Level 5: growth control rate is above 85%)
COCCc1c(C(=O)Nc2nnnn2C)ccnc1-c1ccc(F)cc1 [Compound 1-217] | 5 (Level 5: growth control rate is above 85%) | 5 (Level 5: growth control rate is above 85%) | 5 (Level 5: growth control rate is above 85%) | 5 (Level 5: growth control rate is above 85%)
C=Cc1c(C(=O)Nc2nnnn2C)ccnc1-c1ccc(F)cc1 [Compound 1-218] | 5 (Level 5: growth control rate is above 85%) | 5 (Level 5: growth control rate is above 85%) | 5 (Level 5: growth control rate is above 85%) | 5 (Level 5: growth control rate is above 85%)
C=CCc1c(C(=O)Nc2nnnn2C)ccnc1-c1ccc(F)cc1 [Compound 1-219] | 5 (Level 5: growth control rate is above 85%) | 5 (Level 5: growth control rate is above 85%) | 5 (Level 5: growth control rate is above 85%) | 5 (Level 5: growth control rate is above 85%)
C#Cc1c(C(=O)Nc2nnnn2C)ccnc1-c1ccc(F)cc1 [Compound 1-220] | 5 (Level 5: growth control rate is above 85%) | 5 (Level 5: growth control rate is above 85%) | 5 (Level 5: growth control rate is above 85%) | 5 (Level 5: growth control rate is above 85%)
Cn1nnnc1NC(=O)c1ccnc(-c2ccc(F)cc2)c1C1CC1 [Compound 1-221] | 5 (Level 5: growth control rate is above 85%) | 5 (Level 5: growth control rate is above 85%) | 5 (Level 5: growth control rate is above 85%) | 5 (Level 5: growth control rate is above 85%)
